The source of these data is ChEMBL document CHEMBL5335850, “Isolation of Paraphaeoketones: A Plausible Biosynthetic Explanation for Paraphaeolactones via a Benzilic Acid Rearrangement Rather than a Favorskii Rearrangement” (J Nat Prod, 2024).

Each structure is given as a SMILES string. Calls of active or inactive are those of the source. The calls are words filed in the database; no cut-off is given here.

One test has as its system Bipolaris oryzae. In words: Antifungal activity against Bipolaris oryzae assessed as inhibition of fungal growth incubated for 5 days by paper disk method. Conditions: time 5.0 day. Format: functional, organism-based.
The subject of the next test is COLO 201. As to the kind of experiment: Cytotoxicity against human COLO201 cells assessed as inhibition of cell proliferation incubated for 24 hrs by WST-1 reagent based titer-plate reader assay. Format: functional. For orientation: Tetrazolium dyes change colour on reduction, which living cells bring about.

On to `CC1C2CC3(O)OC(C)(O2)C(=O)C1C3O` (stereo unspecified), for which the outcome in the test with Bipolaris oryzae and in the test on COLO 201 was inactive.
Regarding `CC1C=CC2(O)CC(=O)C(=O)C1C2O` (stereo unspecified), the result with Bipolaris oryzae and in the test with COLO 201 was inactive.
With `C[C@@H]1C=C[C@@]2(O)[C@H](O)[C@@H]1C(=O)[C@]1(O)O[C@H]3C(=O)[C@@H]4[C@H](C)C=C[C@](O)([C@H]3[C@H]21)[C@@H]4O`, the outcome in the test with Bipolaris oryzae and in the test with COLO 201 was inactive.
